The values below are quoted from earlier work in US10744098B2, “Spray-dried solid-in-oil-in-water dispersions for inhalation of active pharmaceutical ingredients” (Novartis AG, priority 2014, dated 2020).

Molecules are shown by their SMILES.

The target in the data set is β2-adrenoceptor (Homo sapiens, UniProt P07550).
Chain of β2-adrenoceptor (P07550 whole entry, species assumed): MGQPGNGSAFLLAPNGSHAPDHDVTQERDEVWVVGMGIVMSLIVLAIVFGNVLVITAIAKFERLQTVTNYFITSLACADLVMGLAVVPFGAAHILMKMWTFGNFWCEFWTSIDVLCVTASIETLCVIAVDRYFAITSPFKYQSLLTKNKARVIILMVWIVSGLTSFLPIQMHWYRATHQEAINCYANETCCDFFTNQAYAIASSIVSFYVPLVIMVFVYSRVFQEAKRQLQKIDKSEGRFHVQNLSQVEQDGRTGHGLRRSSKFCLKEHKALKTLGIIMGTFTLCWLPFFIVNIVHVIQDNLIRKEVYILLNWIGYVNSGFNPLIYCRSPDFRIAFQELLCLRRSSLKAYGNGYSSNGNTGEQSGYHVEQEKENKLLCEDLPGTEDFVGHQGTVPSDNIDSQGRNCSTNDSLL

On to `CCc1cc2c(cc1CC)CC(NC[C@H](O)c1ccc(O)c3[nH]c(=O)ccc13)C2` [indacaterol, (R)-5-[2-(5,6-diethyl-indan-2-ylamino)-1-hydroxyethyl]-8-hydroxy-1H-quinolin-2-one], for which the duration of action result is “over 24 hours” and the onset of action entry is listed as “about 10 minutes”.
